Results published in patent EP0054873A1, “3,4-Di-substituted 1,2,5-oxadiazole-2 oxides, method for their preparation and pharmaceutical compositions containing them” (CASSELLA Aktiengesellschaft, priority 1980, dated 1982).

Test system: Bastardhunden
Assay: Haemodynamic study of antianginal and antihypertensive effect in anaesthetised mongrel dogs
Type: in vivo
Details: change from steady state
Procedure: Die Untersuchungen über die antianginöse und antihypertensive Wirkung der Verbindungen der Formel I wurden an Bastardhunden beiderlei Geschlechts in Pentobarbital-Narkose (30 bis 40 mg/kg i.v.) oder in Urethan-Chloralose-Narkose (3 ml/kg Urethan-Chloralose-Gemisch i.v. = 20 mg/kg Chloralose und 250 mg/kg Urethan) durchgeführt. Die Beatmung der Tiere erfolgte mit einem Bird-Mark-7-Respi- rator. […] Während des gesamten Versuchs erhielten die Tiere mit Pentobarbital-Narkose eine Dauerinfusion von Pentobarbital i.v. = 4 mg/kg/6ml/h, um eine konstante Narkosetiefe zu gewährleisten; die Tiere mit Urethan-Chloralose-Narkose erhielten keine Dauerinfusion. Die Infusion wurde durch die Vena cephalica gegeben. Nach der Präparation des Versuchstieres wurde ca. 1 Stunde gewartet, bis sich alle haemodynamischen Parameter eingestellt hatten (steady state). Danach wurde mit dem eigentlichen Versuch begonnen.
Der systolische und diastolische Blutdruck wurde peripher in der Arteria femoralis über einen Statham-Druckaufnehmer gemessen. Ein über die Arteria carotis in den linken Ventrikel geschobener Millar-Tip-Katheter lieferte das Signal für den LVEDP(linksvcntrikulärer enddiastolischer Druck) und die Herzfrequenz. Mit einem zweiten, über die Vena ju-fularis eingeschobenen Tip-Katheter wurde der mittlere Blutdruck in der Arteria pulmonalis erfaßt. Die erhaltenen Ergebnisse sind in der folgenden Tabelle angegeben.

Structure (SMILES)	BDm Δ (mittlerer peripherer Blutdruck) (Dosis 0,05 mg/kg i.v.) [mmHg]	LVEDP Δ (linksventrikulärer enddiastolischer Druck) (Dosis 0,05 mg/kg i.v.) [mm/Hg]	PAP Δ (mittlerer Pulmonalarteriendruck) (Dosis 0,05 mg/kg i.v.) [mmHg]	BDm Δ (mittlerer peripherer Blutdruck) (Dosis 0,1 mg/kg i.v.) [mmHg]	LVEDP Δ (linksventrikulärer enddiastolischer Druck) (Dosis 0,1 mg/kg i.v.)	PAP Δ (mittlerer Pulmonalarteriendruck) (Dosis 0,1 mg/kg i.v.) [mmHg]
CNC(=O)c1c(C)no[n+]1[O-] [A]	-30	-3	-2			
COCCNC(=O)c1no[n+]([O-])c1C [B]				-25	-2,5 mm/Hg	-1
Cc1c(C(=O)NCc2cccnc2)no[n+]1[O-] [C]	-35	-2	-1			
